Measured values published in patent EP1235797B1, “ARALKYL-1,2-DIAMINES HAVING CALCIMIMETIC ACTIVITY AND PREPARATION MODE” (CENTRE NATIONAL DE LA RECHERCHE SCIENTIFIQUE (CNRS), priority 1999, dated 2001).

Legend:
[1] = molecular target: T1, récepteurs de la parathyroïde (Rattus norvegicus, UniProt P48442); details: experimental trials in the rat; cited from earlier work
T1 construct: from tissue; host or cells: rat parathyroid gland (in vivo)
T1 sequence (P48442 20-1079): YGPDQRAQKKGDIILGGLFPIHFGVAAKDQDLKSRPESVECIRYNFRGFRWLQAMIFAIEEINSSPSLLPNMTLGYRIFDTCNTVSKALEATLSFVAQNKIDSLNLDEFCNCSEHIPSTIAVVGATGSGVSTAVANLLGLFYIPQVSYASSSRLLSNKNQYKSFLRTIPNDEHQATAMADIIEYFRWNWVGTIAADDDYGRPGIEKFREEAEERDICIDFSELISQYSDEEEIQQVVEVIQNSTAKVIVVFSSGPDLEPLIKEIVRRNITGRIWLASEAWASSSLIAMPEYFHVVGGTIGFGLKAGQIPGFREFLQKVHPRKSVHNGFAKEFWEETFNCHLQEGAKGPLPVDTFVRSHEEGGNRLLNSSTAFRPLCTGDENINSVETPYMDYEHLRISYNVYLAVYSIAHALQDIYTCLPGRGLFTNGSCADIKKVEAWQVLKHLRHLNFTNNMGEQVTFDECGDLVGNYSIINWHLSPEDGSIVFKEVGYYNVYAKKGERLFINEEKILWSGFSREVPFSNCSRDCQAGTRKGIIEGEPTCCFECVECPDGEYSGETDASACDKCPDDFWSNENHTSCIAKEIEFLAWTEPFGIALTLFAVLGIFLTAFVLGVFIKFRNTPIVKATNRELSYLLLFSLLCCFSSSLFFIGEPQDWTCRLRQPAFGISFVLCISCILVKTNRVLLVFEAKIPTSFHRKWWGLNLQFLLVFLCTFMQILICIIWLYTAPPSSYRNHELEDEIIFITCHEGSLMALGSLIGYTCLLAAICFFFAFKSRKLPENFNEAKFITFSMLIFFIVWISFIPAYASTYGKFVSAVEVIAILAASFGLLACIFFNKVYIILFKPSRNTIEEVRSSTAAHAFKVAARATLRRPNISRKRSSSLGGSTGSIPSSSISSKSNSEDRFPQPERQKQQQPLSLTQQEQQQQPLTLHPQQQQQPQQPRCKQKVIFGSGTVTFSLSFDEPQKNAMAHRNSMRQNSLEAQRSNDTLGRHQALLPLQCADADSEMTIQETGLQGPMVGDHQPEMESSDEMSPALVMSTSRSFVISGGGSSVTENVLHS

cellules CHO(WT*) = test: Specificity control: [3H]IP accumulation in CHO(WT*) control cells transfected with the plasmid alone, not expressing CaSR; assay type: cell-based, hamster chinois; details: compound 10 µM, basal level in presence of 2 mM Ca^2+ = 100 %
Experimental: Les molécules PHD, utilisées à une concentration de 10 µM ne conduisent pas ou peu à l'accumulation d'[^3H]IP dans des cellules CHO(WT*) témoins ce qui suggère leur spécificité d'action vis-à-vis du CaSR (Tableau 2). Les cellules CHO(WT*) ont été tranfectées avec le plasmide seul et n'expriment pas le CaSR.
(§1) L'accumulation d'inositols phosphates tritiés est exprimée en pourcentage du taux de base observé en présence de 2 mM Ca^2+ (100 %) dans les cellules CHO(WT*) ou CHO(CaSR).

glande parathyroïdienne = details: rat model of chronic renal failure (Wada et al, J. Clin. Invest., 1997); cited from earlier work
PTH [2] = details: oral route, postmenopausal women with primary hyperparathyroidism (Silverberg et al, 1997); cited from earlier work
[3] = clinical trials Phase I - II, NPS Pharmaceutical (Nemeth et al, 1999); cited from earlier work
CaSR de rat = molecular target: T2, CaSR de rat (Rattus norvegicus, UniProt P48442); test: Accumulation of tritiated inositol phosphates ([3H]IP) in transfected CHO(CaSR) cells; assay type: cell-based; details: compound 10 µM
T2 construct: expressed in transfected cells; host or cells: CHO (Chinese hamster ovary) cells, line CHO(CaSR)
T2 sequence (P48442 20-1079): T1 sequence (P48442 20-1079)
Source text: L'ADN complémentaire codant pour le CaSR de rat a été isolé à partir d'une banque ADNc de striatum de rat (Ruat et al, Proc. Natl. Acad. Sci., 1995). Ce récepteur est identique au niveau de sa séquence en acides aminés à celui exprimé dans les autres tissus. Des cellules ovariennes de hamster chinois (CHO) transfectées exprimant le CaSR de rat (CHO(CaSR)) ont été caractérisées et les signaux chimiques (seconds messagers) induits par l'activation de ce récepteur ont été analysés. Ainsi, un test biochimique permettant de mesurer l'accumulation d'inositols phosphates tritiés [^3H]IP en réponse à l'activation du récepteur a été mis au point (Ruat et al, J. Biol. Chem., 1996; Ferry et al, Biochem. Biophys. Res. Commun., 1997).
L'activité calcimimétique des composés a été estimée en mesurant l'accumulation d'inositols phosphates tritiés induite par 10 µM de chacun des composés en présence de 2 mM de Ca^2+ dans les cellules CHO(CaSR) (Ferry et al, Biochem Biophys Res Commun, 1997).
Cette activation a été comparée à celle induite par le composé NPS-R- 568, un calcimimétique de référence et utilisé à une concentration de 10 µM (Tableau 1) (Ferry et al, Biochem Biophys Res Commun, 1997; Nemeth et al, Proc Natl Acad Sci USA, 1997).
Dans le tableau 1, l'activité calcimimétique des composés PHD est comparée à celle d'un composé de référence, le NPS-R-568 utilisé à la même concentration et dans les mêmes conditions expérimentales. Cette activité est exprimée en pourcentage de l'activité de 10 mM de Ca^2+. Les moyennes ± erreurs standards de 2 à 5 manipulations indépendantes sont indiquées. Les expériences ont été réalisées en présence de 2 mM de Ca^2+.
as §1

ostéitis fibrosa = details: rat (Wada et al, Kidney International, 1998); cited from earlier work
PTH [4] = details: male patients with chronic renal failure (Antansen et al, Kidney International, 1998); cited from earlier work

Accumulation d'(^3H)-IP % du taux basal. CHO (CaSR) (CaSR de rat; basal level in presence of 2 mM Ca^2+ = 100 %)	activity at 10 µM (CaSR de rat; basal level in presence of 2 mM Ca^2+ = 100 %, read-out: Accumulation d'(^3H)-IP % du taux basal. CHO (CaSR)) [%]	Accumulation d'(^3H)-IP % de la réponse 10mM Ca^2+ ± E.S. (CaSR de rat; in presence of 2 mM Ca^2+, mean ± standard error of 2 to 5 independent experiments) [%]	activation at 10 µM (CaSR de rat; in presence of 2 mM Ca^2+, mean ± standard error of 2 to 5 independent experiments, read-out: Accumulation d'(^3H)-IP % de la réponse 10mM Ca^2+ ± E.S.) [%]	SMILES	sélectivité vis à vis des récepteurs de la parathyroïde comparativement à ceux de la glande thyroïde [1]	Accumulation d'(^3H)-IP % du taux basal. CHO (WT*) (cellules CHO(WT*))	activity at 10 µM (cellules CHO(WT*); read-out: Accumulation d'(^3H)-IP % du taux basal. CHO (WT*)) [%]	réduire la prolifération cellulaire observée dans la glande parathyroïdienne (glande parathyroïdienne)	concentrations de PTH et des ions Ca^2+ libres sériques (PTH [2])	bio-disponibilité [3]	ostéitis fibrosa (ostéitis fibrosa)	concentrations de PTH (PTH [4])
				COc1cccc([C@@H](C)NCCCc2ccccc2)c1 [NPS R-467]	plus sélectif							
une forte accumulation	454 ± 33	106 ± 15	100	COc1cccc([C@@H](C)NCCCc2ccccc2Cl)c1 [NPS R-568, reference compound]		peu ou pas d'accumulation	119 ± 9	20-50%	abaisser	faible	réduit ou élimine	réduit
